Data on 15 compounds can be found in patent US8367831B2, “Heterocyclic compound or salt thereof and intermediate thereof” (priority 2006, dated 2013).

Converted amounts (≈) assume the structure as drawn. Structures can show the parent of a compound that is named as a salt. Where two headings read alike, the source gives them in different places.

In series [1] the test system is S. aureus F-3095. Nature of the series: Susceptibility test 1: MIC by micro-dilution method. Particulars: Staphylococcus aureus. The class given is cell-based. How it is done:
(§1) Test substances were initially dissolved in dimethylsulfoxide. Antibacterial activities (MICs) of the same compounds were determined by the micro-dilution method as recommended by the Japanese Society of Chemotherapy.
(§2) The bacteria cultured on Mueller-Hinton agar (MHA) plates at 35° C. overnight were suspended in sterile physiological saline in a concentration that was equivalent to 0.5 McFarland. The bacterial inoculum was prepared by 10-fold dilution of this suspension. Approximately 0.005 mL of the bacterial inoculum was inoculated into Cation-adjusted Mueller-Hinton broth (CAMHB, 100 μL/well) containing the test substance and was incubated at 35° C. overnight. The lowest concentration of the test substance at which no bacterial growth was macroscopically observed was determined as the MIC.
A general note: Dilution methods test growth across graded concentrations, often in twofold steps.

The subject of series [2] is S. aureus FDA209P. Described as above. In kind it is cell-based. Particulars: Staphylococcus aureus, read-out: MIC (μg/mL) S. aureus FDA209P. How it is done: as §1, §2
The subject of series [3] is Staphylococcus aureus (S. aureus Smith). Nature of the series: S. aureus infection experiment in mice. The following applies: ICR mice, five per group, intraperitoneal infection, 1 hour after infection. The class given is in vivo. How it is done: ICR mice (male, SPF grade, 4-week old, five mice per group) were used. A bacterial inoculum was prepared by suspending Staphylococcus aureus (S. aureus
Smith), which was cultured on a Mueller-Hinton agar plate at 37° C. overnight, in sterile physiological saline, preparing a bacterial solution of about 4×10^8 CFU/mL, and diluting the solution 10-fold in 5.6% mucin-phosphate buffer. ICR mice were intraperitoneally administered with the bacterial inoculum (approximately 2×10^7 CFU/mouse) to induce infection. Test substances were dissolved in 10% hydroxypropyl-β-cyclodextrin and 0.05 mol/L hydrochloric acid. […] The number of surviving mice was recorded on 5 days after the infection.

Series [4] can be described thus: Cytotoxicity test (XTT). The class given is cell-based. The following applies: African green monkey, vero cells, 3 days incubation, absorbance 450 nm, read-out: CC50 (concentration when cell proliferation was inhibited by 50%). How it is done: Each test substance was dissolved in dimethyl sulfoxide and was prepared to each concentration with E-MEM containing 10% FBS, and then 0.1 mL of this solution was dispensed into each well of a 96-well microplate. A vero cell suspension containing 3×10^4 cells/mL was prepared with E-MEM containing 10% FBS, and 0.1 mL of the suspension was inoculated to each well. After incubation in 5% CO2 at 37° C. for 3 days, 50 μL of E-MEM containing 1 mg/mL of 2,3-bis-(2-methoxy-4-nitro-5-sulfophenyl)-5-[(phenylamino)carbonyl]-2H-tetrazolium, inner salt, monosodium salt (XTT) and 25 μM of phenazine methosulfate (PMS) was added to each well. After about 2 hours, the absorbance at 450 nm was measured with a microplate reader.
The absorbance ratio of each well supplied with the test substance and the control not containing the test substance was calculated, and the concentration of each compound when cell proliferation was inhibited by 50% (CC50; μg/mL) was calculated.

Series [5] can be described thus: Antimicrobial activity (general statement). Particulars: qualitative statement, no comparator named.
Series [6] in a line: Safety (general statement). The following applies: qualitative statement, no comparator named. An excerpt: The compound of the general formula [1] of the present invention has excellent safety. The safety can be evaluated by various tests, for example, by various types of safety tests selected from a cytotoxicity test, a selectivity test against DNA gyrase of human and various bacteria, a selectivity test against topoisomerase IV of human and various bacteria, an hERG test, a repeat-dose toxicity test, a cytochrome P450 (CYP) activity inhibition test, a metabolic dependence inhibition test, an in vivo mouse micronucleus test, an in vivo rat liver UDS test, and the like.

Series [7] can be described thus: Metabolic stability (general statement). In kind it is in vitro ADME. Particulars: qualitative statement, no comparator named. The source says:
The compound of the general formula [1] of the present invention has excellent metabolic stability. The metabolic stability can be evaluated by various tests, for example, by various types of stability tests selected from a human liver microsome metabolic stability test, a human S9 stability test, and the like.

Series [8] can be described thus: Tissue distribution (general statement). The following applies: qualitative statement, no comparator named.
Setting [9] is: F3095, read-out: MIC (μg/mL) S. aureus F-3095.
[10] abbreviates: F3095, F-3095 (MDRSA), CAMHB, 35° C. overnight, lowest concentration with no macroscopic growth, read-out: MIC (μg/mL) S. aureus F-3095.
Setting [11] is: CAMHB, 35° C. overnight, lowest concentration with no macroscopic growth.

Regarding `COc1cnc2ccc(=O)n(CCN3CCC(NCc4cc5c(cn4)OCCO5)CC3)c2n1` [Example 85, 5-(2-(4-((2,3-dihydro(1,4)dioxino(2,3-c)pyridin-7-ylmethyl)amino)piperidin-1-yl)ethyl-3-methoxypyrido(2,3-b)pyrazin-6(5H)-one hydrochloride], the MIC in series [1] (setting [9]) and in series [2] was 0.0313 µg/mL each time. Moreover, the “number of surviving mice on 5 days after the infection” value (from here on “number of surviving mice on 5 days”) in series [3] (1 mg/kg subcutaneously once) is given as “four mice out of five”. Moreover, the CC50 at 3 days in series [4] is at least 51.2 µg/mL. In addition, the antimicrobial activity entry in series [5] is “higher”. Moreover, the safety entry in series [6] was “higher”. In addition, the metabolic stability result in series [7] is recorded as “higher”. Further, the tissue distribution entry in series [8] is reported as “higher”.

As to `O=c1ccc2ncc(OC(F)F)cc2n1CCN1CCC(NCc2cc3c(cn2)OCCO3)CC1` [Example 151, 7-(difluoromethoxy)-1-(2-(4-((2,3-dihydro(1,4)dioxino(2,3-c)pyridin-7-ylmethyl)amino)piperidin-1-yl)ethyl)-1,5-naphthyridin-2(1H)-one hydrochloride], the results for the MIC in series [1] (setting [9]) and in series [2] were 0.125 µg/mL and 0.0313 µg/mL, respectively. In addition, the “number of surviving mice on 5 days” value in series [3] (3 mg/kg subcutaneously once) was “all mice”.

Consider `O=c1ccc2ncc(F)cc2n1CCN1CCC(NCc2cc3c(cn2)OCCO3)CC1` [Example 4, 1-(2-(4-((2,3-dihydro(1,4)dioxino(2,3-c)pyridin-7-ylmethyl)amino)piperidin-1-yl)ethyl)-7-fluoro-1,5-naphthyridin-2(1H)-one hydrochloride], for which the MIC in series [1] (setting [9]) and in series [2] was 0.0313 µg/mL throughout. Besides, the “number of surviving mice on 5 days” value in series [3] (3 mg/kg subcutaneously once) was “all mice”. Moreover, the CC50 at 3 days in series [4] is at least 51.2 µg/mL. In addition, in series [5], the antimicrobial activity result is reported as “higher”. For the same compound, the safety result in series [6] is given as “higher”. Further, in series [7], the metabolic stability result is “higher”. Besides, the tissue distribution result in series [8] was “higher”.

For the compound `O=c1ccc2ncc(Cl)cc2n1CCN1CCC(NCc2cc3c(cn2)OCCO3)CC1` [Example 77, 7-chloro-1-(2-(4-((2,3-dihydro(1,4)dioxino(2,3-c)pyridin-7-ylmethyl)amino)piperidin-1-yl)ethyl)-1,5-naphthyridin-2(1H)-one hydrochloride], the figures for the MIC in series [1] (setting [9]) and in series [2] were 0.0625 µg/mL and 0.0313 µg/mL, respectively. The “number of surviving mice on 5 days” value in series [3] (3 mg/kg subcutaneously once) was “all mice”. Further, in series [4], the CC50 at 3 days is at least 51.2 µg/mL. Further, the antimicrobial activity entry in series [5] was “higher”. The safety entry in series [6] is on record as “higher”. Also, the metabolic stability entry in series [7] was “higher”. The tissue distribution result in series [8] was “higher”.

Take `COc1cnc2ccc(=O)n(CCN3CCC(NCc4cc(-c5ccco5)on4)CC3)c2c1` [Example 140, 1-(2-(4-(((5-(2-furyl)isoxazol-3-yl)methyl)amino)piperidin-1-yl)ethyl)-7-methoxy-1,5-naphthyridin-2(1H)-one]: the MIC in series [1] (setting [10]) and in series [2] (setting [11]) was 0.0156 µg/mL (≈ 0.0347 µM) in each case. The “number of surviving mice on 5 days” value in series [3] (3 mg/kg subcutaneously once) is “all mice”.

Take `COc1cnc2ccc(=O)n(CCN3CCC(NCc4cnc(C)c(F)c4)CC3)c2c1` [Example 93, 1-(2-(4-(((5-fluoro-6-methylpyridin-3-yl)methyl)amino)piperidin-1-yl)ethyl)-7-methoxy-1,5-naphthyridin-2(1H)-one]: the MIC in series [1] (setting [10]) was found to be 0.0313 µg/mL (≈ 0.0736 µM); in series [2] (setting [11]), 0.0625 µg/mL (≈ 0.147 µM). In series [3] (3 mg/kg subcutaneously once), the “number of surviving mice on 5 days” value is “all mice”. Further, the CC50 at 3 days in series [4] was at least 51.2 µg/mL.

Consider `O=c1ccc2ccncc2n1CCN1CCC(NCc2cc(-c3cccs3)on2)CC1` [Example 35, 1-(2-(4-(((5-(2-thienyl)isoxazol-3-yl)methyl)amino)piperidin-1-yl)ethyl)-1,7-naphthyridin-2(1H)-one hydrochloride], for which the MIC in series [1] (setting [9]) and in series [2] was 0.0313 µg/mL in each case. Moreover, in series [4], the CC50 at 3 days is at least 51.2 µg/mL.

Take `COc1cnc2ncc(=O)n(CCN3CCC(NCc4cc5c(cn4)OCCO5)CC3)c2c1` [Example 68, 1-(2-(4-((2,3-dihydro(1,4)dioxino(2,3-c)pyridin-7-ylmethyl)amino)piperidin-1-yl)ethyl)-7-methoxypyrido(2,3-b)pyrazin-2(1H)-one hydrochloride]: the “number of surviving mice on 5 days” value in series [3] (3 mg/kg subcutaneously once) is on record as “all mice”. The CC50 at 3 days in series [4] was at least 51.2 µg/mL.

Regarding `COc1ccc2ncc(=O)n(CCN3CCC(NCc4cc5c(cn4)OCCO5)CC3)c2n1` [Example 10, 4-(2-(4-((2,3-dihydro(1,4)dioxino(2,3-c)pyridin-7-ylmethyl)amino)piperidin-1-yl)ethyl)-6-methoxypyrido(2,3-b)pyrazin-3(4H)-one hydrochloride], the MIC in series [1] (setting [9]) and in series [2] was 0.0156 µg/mL each time. The CC50 at 3 days in series [4] is at least 51.2 µg/mL.

Take `O=C1CSc2cc(Cl)c(CNC3CCN(CCn4c(=O)ccc5ccncc54)CC3)nc2N1` [Example 30, 7-chloro-6-(((1-(2-(2-oxo-1,7-naphthyridin-1(2H)-yl)ethyl)piperidin-4-yl)amino)methyl)-2H-pyrido(3,2-b)(1,4)thiazin-3(4H)-one]: the MIC in series [1] (setting [10]) and in series [2] (setting [11]) was 0.0313 µg/mL (≈ 0.0645 µM) in each case. In addition, the CC50 at 3 days in series [4] was at least 51.2 µg/mL.

Turning to `COc1cnc2ccc(=O)n(CCC3(O)CCC(NCc4cc5c(cn4)OCCO5)CC3)c2n1` (stereo not shown) [Example 119B, 5-(2-(4-((2,3-dihydro(1,4)dioxino(2,3-c)pyridin-7-ylmethyl)amino)-1-hydroxycyclohexyl)ethyl)-3-methoxypyrido(2,3-b)pyrazin-6(5H)-one], the MIC in series [1] (setting [10]) and in series [2] (setting [11]) was 0.0625 µg/mL (≈ 0.134 µM) in each case. In series [3] (3 mg/kg subcutaneously once), the “number of surviving mice on 5 days” value is “all mice”.

Regarding `O=C1CSc2ccc(CNC3CCN(CCn4c(=O)ccc5ccncc54)CC3)nc2N1` [Example 33, 6-(((1-(2-(2-oxo-1,7-naphthyridin-1(2H)-yl)ethyl)piperidin-4-yl)amino)methyl)-2H-pyrido(3,2-b)(1,4)thiazin-3(4H)-one], the MIC in series [1] (setting [10]) and in series [2] (setting [11]) was 0.0313 µg/mL (≈ 0.0695 µM) each time. The CC50 at 3 days in series [4] is at least 51.2 µg/mL.

Turning to `O=c1ccc2ncc(F)cc2n1CCN1CCC(NCc2cc3c(cn2)OCCC3)CC1` [Example 103, 1-(2-(4-((3,4-dihydro-2H-pyrano(2,3-c)pyridin-6-ylmethyl)amino)piperidin-1-yl)ethyl)-7-fluoro-1,5-naphthyridin-2(1H)-one hydrochloride], the MIC in series [1] (setting [9]) and in series [2] was 0.0625 µg/mL throughout. Moreover, the “number of surviving mice on 5 days” value in series [3] (3 mg/kg subcutaneously once) is listed as “all mice”. Further, the CC50 at 3 days in series [4] was at least 51.2 µg/mL.

Take `COc1cnc2ccc(=O)n(CCN3CCC(NCc4ccc5c(n4)NC(=O)CS5)CC3)c2c1` [Example 90, 6-(((1-(2-(7-methoxy-2-oxo-1,5-naphthyridin-1(2H)-yl)ethyl)piperidin-4-yl)amino)methyl)-2H-pyrido(3,2-b)(1,4)thiazin-3(4H)-one]: the MIC in series [1] (setting [10]) and in series [2] (setting [11]) was 0.0313 µg/mL (≈ 0.0651 µM) in each case. Also, the CC50 at 3 days in series [4] is at least 51.2 µg/mL.

With `COc1cnc2c(C)cc(=O)n(CCN3CCC(NCc4cc5c(cn4)OCCO5)CC3)c2c1` [Example 149, 1-(2-(4-((2,3-dihydro(1,4)dioxino(2,3-c)pyridin-7-ylmethyl)amino)piperidin-1-yl)ethyl)-7-methoxy-4-methyl-1,5-naphthyridin-2(1H)-one hydrochloride], the MIC in series [1] (setting [9]) and in series [2] was 0.0313 µg/mL throughout. Also, the “number of surviving mice on 5 days” value in series [3] (3 mg/kg subcutaneously once) is given as “all mice”.
